{"source": "ChEMBL document CHEMBL3272000", "about": "“Local anesthetics. 2-Diethylamino-2',6'-acylxylidides” (J Med Chem, 1976)", "key": {"[1]": {"assay": "Toxicity in ip dosed rat", "assay_type": "organism-based", "conditions": "in vivo"}, "Rattus norvegicus [2]": {"tested_on": "Rattus norvegicus", "assay": "Local anesthetic activity in rat assessed as time duration of motor activity block at 2 % injected around sciatic nerve", "assay_type": "functional"}, "Rattus norvegicus [3]": {"tested_on": "Rattus norvegicus", "assay": "Local anesthetic activity in rat assessed as frequency of motor activity block at 0.125 % injected around sciatic nerve", "assay_type": "functional"}, "Rattus norvegicus [4]": {"tested_on": "Rattus norvegicus", "assay": "Local anesthetic activity in rat assessed as frequency of motor activity block at 0.25 % injected around sciatic nerve", "assay_type": "functional"}, "Rattus norvegicus [5]": {"tested_on": "Rattus norvegicus", "assay": "Local anesthetic activity in rat assessed as frequency of motor activity block at 0.50 % injected around sciatic nerve", "assay_type": "functional"}, "Rattus norvegicus [6]": {"tested_on": "Rattus norvegicus", "assay": "Local anesthetic activity in rat assessed as frequency of motor activity block at 2 % injected around sciatic nerve", "assay_type": "functional"}, "Rattus norvegicus [7]": {"tested_on": "Rattus norvegicus", "assay": "Local anesthetic activity in rat assessed as time duration of motor activity block at 1 % injected around sciatic nerve", "assay_type": "functional"}, "[8]": {"assay": "Ionization constant, pKa of the compound", "assay_type": "physicochemical"}, "Rattus norvegicus [9]": {"tested_on": "Rattus norvegicus", "assay": "Local anesthetic activity in rat assessed as time duration of motor activity block at 0.25 % injected around sciatic nerve", "assay_type": "functional"}, "Rattus norvegicus [10]": {"tested_on": "Rattus norvegicus", "assay": "Local anesthetic activity in rat assessed as time duration of motor activity block at 0.50 % injected around sciatic nerve", "assay_type": "functional"}, "Rattus norvegicus [11]": {"tested_on": "Rattus norvegicus", "assay": "Local anesthetic activity in rat assessed as time duration of motor activity block at 0.125 % injected around sciatic nerve", "assay_type": "functional"}, "Rattus norvegicus [12]": {"tested_on": "Rattus norvegicus", "assay": "Local anesthetic activity in rat assessed as frequency of motor activity block at 1 % injected around sciatic nerve", "assay_type": "functional"}}, "data": [{"compound": "CCN(CC)C(C)C(=O)Nc1c(C)cccc1C", "note": "(stereo unspecified)", "values": [{"measurement": "LD50", "setting": "[1]", "value": 89, "unit": "mg/kg"}, {"measurement": "Time", "setting": "Rattus norvegicus [2]", "value": 160, "unit": "min"}, {"measurement": "Activity", "setting": "Rattus norvegicus [3]", "value": 100, "unit": "%"}, {"measurement": "Activity", "setting": "Rattus norvegicus [4]", "value": 100, "unit": "%"}, {"measurement": "Activity", "setting": "Rattus norvegicus [5]", "value": 100, "unit": "%"}, {"measurement": "Activity", "setting": "Rattus norvegicus [6]", "value": 100, "unit": "%"}, {"measurement": "Time", "setting": "Rattus norvegicus [7]", "value": 114, "unit": "min"}, {"measurement": "pKa", "setting": "[8]", "value": 8.12}, {"measurement": "Time", "setting": "Rattus norvegicus [9]", "value": 92, "unit": "min"}, {"measurement": "Time", "setting": "Rattus norvegicus [10]", "value": 104, "unit": "min"}, {"measurement": "Time", "setting": "Rattus norvegicus [11]", "value": 82, "unit": "min"}, {"measurement": "Activity", "setting": "Rattus norvegicus [12]", "value": 100, "unit": "%"}]}, {"compound": "CCCCC(C(=O)Nc1c(C)cccc1C)N(CC)CC.Cl", "note": "(stereo unspecified)", "values": [{"measurement": "LD50", "setting": "[1]", "value": 44, "unit": "mg/kg"}, {"measurement": "Time", "setting": "Rattus norvegicus [2]", "value": 246, "unit": "min"}, {"measurement": "Activity", "setting": "Rattus norvegicus [3]", "value": 80, "unit": "%"}, {"measurement": "Activity", "setting": "Rattus norvegicus [4]", "value": 60, "unit": "%"}, {"measurement": "Activity", "setting": "Rattus norvegicus [5]", "value": 100, "unit": "%"}, {"measurement": "Activity", "setting": "Rattus norvegicus [6]", "value": 80, "unit": "%"}, {"measurement": "Time", "setting": "Rattus norvegicus [7]", "value": 196, "unit": "min"}, {"measurement": "pKa", "setting": "[8]", "value": 7.81}, {"measurement": "Time", "setting": "Rattus norvegicus [9]", "value": 111, "unit": "min"}, {"measurement": "Time", "setting": "Rattus norvegicus [10]", "value": 119, "unit": "min"}, {"measurement": "Time", "setting": "Rattus norvegicus [11]", "value": 92, "unit": "min"}, {"measurement": "Activity", "setting": "Rattus norvegicus [12]", "value": 100, "unit": "%"}]}, {"compound": "CCC(C(=O)Nc1c(C)cccc1C)N(CC)CC.Cl", "note": "(stereo unspecified)", "values": [{"measurement": "LD50", "setting": "[1]", "value": 54, "unit": "mg/kg"}, {"measurement": "Time", "setting": "Rattus norvegicus [2]", "value": 318, "unit": "min"}, {"measurement": "Activity", "setting": "Rattus norvegicus [3]", "value": 100, "unit": "%"}, {"measurement": "Activity", "setting": "Rattus norvegicus [4]", "value": 100, "unit": "%"}, {"measurement": "Activity", "setting": "Rattus norvegicus [5]", "value": 100, "unit": "%"}, {"measurement": "Activity", "setting": "Rattus norvegicus [6]", "value": 100, "unit": "%"}, {"measurement": "Time", "setting": "Rattus norvegicus [7]", "value": 308, "unit": "min"}, {"measurement": "pKa", "setting": "[8]", "value": 7.91}, {"measurement": "Time", "setting": "Rattus norvegicus [9]", "value": 235, "unit": "min"}, {"measurement": "Time", "setting": "Rattus norvegicus [10]", "value": 297, "unit": "min"}, {"measurement": "Time", "setting": "Rattus norvegicus [11]", "value": 156, "unit": "min"}, {"measurement": "Activity", "setting": "Rattus norvegicus [12]", "value": 100, "unit": "%"}]}, {"compound": "CCN(CC)CC(=O)Nc1c(C)cccc1C", "note": "[LIDOCAINE]", "values": [{"measurement": "Time", "setting": "Rattus norvegicus [2]", "value": 185, "unit": "min"}, {"measurement": "Activity", "setting": "Rattus norvegicus [4]", "value": 100, "unit": "%"}, {"measurement": "Activity", "setting": "Rattus norvegicus [5]", "value": 100, "unit": "%"}, {"measurement": "Activity", "setting": "Rattus norvegicus [6]", "value": 100, "unit": "%"}, {"measurement": "Time", "setting": "Rattus norvegicus [7]", "value": 162, "unit": "min"}, {"measurement": "Time", "setting": "Rattus norvegicus [9]", "value": 102, "unit": "min"}, {"measurement": "Time", "setting": "Rattus norvegicus [10]", "value": 123, "unit": "min"}, {"measurement": "Activity", "setting": "Rattus norvegicus [12]", "value": 100, "unit": "%"}]}, {"compound": "CCCC(C(=O)Nc1c(C)cccc1C)N(CC)CC.Cl", "note": "(stereo unspecified)", "values": [{"measurement": "LD50", "setting": "[1]", "value": 51, "unit": "mg/kg"}, {"measurement": "Time", "setting": "Rattus norvegicus [2]", "value": 268, "unit": "min"}, {"measurement": "Activity", "setting": "Rattus norvegicus [3]", "value": 100, "unit": "%"}, {"measurement": "Activity", "setting": "Rattus norvegicus [4]", "value": 100, "unit": "%"}, {"measurement": "Activity", "setting": "Rattus norvegicus [5]", "value": 100, "unit": "%"}, {"measurement": "Activity", "setting": "Rattus norvegicus [6]", "value": 100, "unit": "%"}, {"measurement": "Time", "setting": "Rattus norvegicus [7]", "value": 179, "unit": "min"}, {"measurement": "pKa", "setting": "[8]", "value": 7.89}, {"measurement": "Time", "setting": "Rattus norvegicus [9]", "value": 123, "unit": "min"}, {"measurement": "Time", "setting": "Rattus norvegicus [10]", "value": 140, "unit": "min"}, {"measurement": "Time", "setting": "Rattus norvegicus [11]", "value": 117, "unit": "min"}, {"measurement": "Activity", "setting": "Rattus norvegicus [12]", "value": 100, "unit": "%"}]}]}
